Type in all cases: in vivo
Experiment [1] has as its system Puccinia recondita tritici. The experiment can be described thus: Leaf Rust of Wheat (PUCCRT) whole-plant disease control test. The conditions noted are these: 200 ppm applied to foliage of wheat, inoculated one day after treatment; for pest or weed control at 200 ppm: Puccinia recondita, foliar, read-out: PUCCRT disease control.
The test system of experiment [2] is Mycosphaerella graminicola=Septoria tritici. The experiment can be described thus: Speckled Leaf Blotch of Wheat (SEPTTR) whole-plant disease control test. The conditions noted are these: 75 ppm applied to foliage of wheat; for pest or weed control at 75 ppm: Mycosphaerella, foliar, read-out: SEPTTR disease control.
Experiment [3] deals with Leptosphaeria nodorum. The experiment can be described thus: Glume Blotch of Wheat (LEPTNO) whole-plant disease control test. The conditions noted are these: 200 ppm applied to foliage of wheat, inoculated one day after treatment; for pest or weed control at 200 ppm: Parastagonospora nodorum, foliar, read-out: LEPTNO disease control.
The subject of experiment [4] is Erysiphe cichoracaerum. The experiment can be described thus: Cucumber Powdery Mildew (ERYSCI) whole-plant disease control test. The conditions noted are these: 200 ppm applied to foliage of cucumber, inoculated one day after treatment; for pest or weed control at 200 ppm: Erysiphe, foliar, read-out: ERYSCI disease control.
For experiment [5], the system named is Phytophthora infestans. The experiment can be described thus: whole plant or invertebrate. The conditions noted are these: inoculated one day after treatment; for pest or weed control at 200 ppm: Phytophthora infestans, in Solanum lycopersicum, foliar, read-out: PHYTIN disease control, 200 ppm applied to foliage of tomato.
Experiment [6] concerns Colletotricum lagenarium. The experiment can be described thus: Cucumber Anthracnose (COLLLA) whole-plant disease control test. The conditions noted are these: 200 ppm applied to foliage of cucumber, inoculated one day after treatment; for pest or weed control at 200 ppm: Cucumis sativus, foliar, read-out: COLLLA disease control.
For experiment [7], the system named is Magnaporthe grisea=Pyricularia oryzae. The experiment can be described thus: whole plant or invertebrate. The conditions noted are these: inoculated one day after treatment; for pest or weed control at 200 ppm: Pyricularia oryzae, foliar, read-out: PYRIOR disease control, 200 ppm applied to foliage of rice.

Take `N#Cc1nc(Cl)ccc1Oc1ccc(CCNc2ncnc3scc(Cl)c23)cc1` [Compound 58]: the pest or weed control at 200 ppm in experiment [1] was 80 to 100%; in experiment [3], 50 to 79%; in experiment [4], 0 to 49%; in experiment [5], 0 to 49%; in experiment [6], 0 to 49%; in experiment [7], 80 to 100%. Besides, the pest or weed control at 75 ppm in experiment [2] was in the range of 50 to 79%.

As to `N#Cc1nc(Oc2ccc(CCNc3ncnc4scc(Cl)c34)cc2)ccc1Cl` [Compound 59], the pest or weed control at 200 ppm in experiment [1] fell in the range of 80 to 100%; in experiment [3], 0 to 49%; in experiment [4], 50 to 79%; in experiment [5], 0 to 49%; in experiment [6], 80 to 100%; in experiment [7] it was 80 to 100%. Besides, the pest or weed control at 75 ppm in experiment [2] fell in the range of 0 to 49%.

Turning to `Fc1cnc(C(F)(F)F)c(F)c1Oc1ccc(CCNc2ncnc3scc(Cl)c23)cc1` [Compound 61], the pest or weed control at 200 ppm in experiment [1] lay within 80 to 100%; in experiment [3], 50 to 79%; in experiment [4], 80 to 100%; in experiment [5], 0 to 49%; in experiment [6] it was 80 to 100%; in experiment [7], 80 to 100%. For the same molecule, the pest or weed control at 75 ppm in experiment [2] was in the range of 80 to 100%.

On to `FC(F)(F)c1cc(Cl)nc(Oc2ccc(CCNc3ncnc4scc(Cl)c34)cc2)c1` [Compound 62], for which the pest or weed control at 200 ppm in experiment [1] lay in the range of 80 to 100%; in experiment [3] it was 0 to 49%; in experiment [4], 50 to 79%; in experiment [5], 0 to 49%; in experiment [6], 80 to 100%; in experiment [7] it was 80 to 100%. Also, in experiment [2], the pest or weed control at 75 ppm lay in the range of 50 to 79%.

On to `COc1cc(C(F)(F)F)cc(Oc2ccc(CCNc3ncnc4scc(Cl)c34)cc2)n1` [Compound 63], for which the pest or weed control at 200 ppm in experiment [1] fell in the range of 80 to 100%; in experiment [3], 0 to 49%; in experiment [4], 80 to 100%; in experiment [5], 50 to 79%; in experiment [6], 50 to 79%; in experiment [7], 80 to 100%. In addition, the pest or weed control at 75 ppm in experiment [2] was 50 to 79%.

In the case of `FC(F)(F)c1cnc(Oc2ccc(CCNc3ncnc4scc(Cl)c34)cc2)c(Cl)c1` [Compound 64], the pest or weed control at 200 ppm was 80 to 100% in experiment [1]; 0 to 49% in experiment [3]; 80 to 100% in experiment [4]; 0 to 49% in experiment [5]; 50 to 79% in experiment [6]; 80 to 100% in experiment [7]. Moreover, the pest or weed control at 75 ppm in experiment [2] was 80 to 100%.

With `FC(F)(F)c1ccc(Oc2ccc(CCNc3ncnc4scc(Cl)c34)cc2)cn1` [Compound 65], the pest or weed control at 200 ppm in experiment [1] fell in the range of 80 to 100%; in experiment [3], 50 to 79%; in experiment [4], 50 to 79%; in experiment [5], 80 to 100%; in experiment [6] it was 80 to 100%; in experiment [7], 80 to 100%. Besides, the pest or weed control at 75 ppm in experiment [2] was 80 to 100%.

For `Cc1noc2ncnc(Oc3ccc(CCNc4ncnc5scc(Cl)c45)cc3)c12` [Compound 66], the pest or weed control at 200 ppm in experiment [1] lay in the range of 80 to 100%; in experiment [3] it was 0 to 49%; in experiment [4] it was 0 to 49%; in experiment [5] it was 0 to 49%; in experiment [6], 0 to 49%; in experiment [7], 50 to 79%. Further, in experiment [2], the pest or weed control at 75 ppm lay within 50 to 79%.

As for `FC(F)(F)c1ccc(Oc2cccc(CCNc3ncnc4scc(Cl)c34)c2)nc1` [Compound 67, (5-Chlorothieno[2,3-d]pyrimidin-4-yl)-{2-[3-(5-trifluoromethylpyridin-2-yloxy)phenyl]ethyl}amine], the pest or weed control at 200 ppm in experiment [1] is 80 to 100%; in experiment [3] it was 50 to 79%; in experiment [4] it was 50 to 79%; in experiment [5] it was 50 to 79%; in experiment [6], 0 to 49%; in experiment [7], 80 to 100%. Moreover, the pest or weed control at 75 ppm in experiment [2] fell in the range of 80 to 100%.

As to `Clc1csc2ncnc(NCCc3ccc(Oc4ncnc5scc(Cl)c45)cc3)c12` [Compound 68], in experiment [1], the PUCCRT disease control result is “*** (*** = 80–100 percent control)”. Besides, the SEPTTR disease control entry in experiment [2] was “* (* = 0–49 percent control)”. The LEPTNO disease control entry in experiment [3] was “* (* = 0–49 percent control)”. Moreover, in experiment [4], the ERYSCI disease control entry was “* (* = 0–49 percent control)”. The PHYTIN disease control entry in experiment [5] (200 ppm applied to foliage of tomato) is reported as “** (** = 50–79 percent control)”. Besides, in experiment [6], the COLLLA disease control result was “* (* = 0–49 percent control)”. The PYRIOR disease control result in experiment [7] (200 ppm applied to foliage of rice) is recorded as “*** (*** = 80–100 percent control)”.

For `FC(F)(F)c1ccnc(Oc2cccc(CCNc3ncnc4scc(Cl)c34)c2)c1` [Compound 69], the pest or weed control at 200 ppm in experiment [1] lay within 80 to 100%; in experiment [3], 0 to 49%; in experiment [4], 50 to 79%; in experiment [5], 0 to 49%; in experiment [6] it was 0 to 49%; in experiment [7], 80 to 100%. Besides, the pest or weed control at 75 ppm in experiment [2] was in the range of 50 to 79%.

Regarding `Cc1cc(OC(F)F)cnc1Oc1ccc(CCNc2ncnc3scc(Cl)c23)cc1` [Compound 70], the pest or weed control at 200 ppm lay in the range of 80 to 100% in experiment [1]; 80 to 100% in experiment [3]; 0 to 49% in experiment [4]; 50 to 79% in experiment [5]; 80 to 100% in experiment [6]; 80 to 100% in experiment [7]. Further, the pest or weed control at 75 ppm in experiment [2] fell in the range of 80 to 100%.

With `N#Cc1c(Cl)cncc1Oc1ccc(CCNc2ncnc3scc(Cl)c23)cc1` [Compound 71], the pest or weed control at 200 ppm in experiment [1] fell in the range of 80 to 100%; in experiment [3], 80 to 100%; in experiment [4], 50 to 79%; in experiment [5], 0 to 49%; in experiment [6] it was 80 to 100%; in experiment [7], 80 to 100%. In experiment [2], the pest or weed control at 75 ppm was in the range of 80 to 100%.

`N#Cc1ccncc1Oc1ccc(CCNc2ncnc3scc(Cl)c23)cc1` [Compound 74]: the pest or weed control at 200 ppm in experiment [1] lay in the range of 80 to 100%; in experiment [3] it was 80 to 100%; in experiment [4], 0 to 49%; in experiment [5] it was 50 to 79%; in experiment [6] it was 80 to 100%; in experiment [7], 80 to 100%. Further, the pest or weed control at 75 ppm in experiment [2] lay in the range of 50 to 79%.

For the molecule `FC(F)(F)c1cc(Oc2ccc(CCNc3ncnc4scc(Cl)c34)cc2)cc(C(F)(F)F)n1` [Compound 75], the pest or weed control at 200 ppm fell in the range of 80 to 100% in experiment [1]; 80 to 100% in experiment [3]; 80 to 100% in experiment [4]; 0 to 49% in experiment [5]; 80 to 100% in experiment [6]; 80 to 100% in experiment [7]. Moreover, the pest or weed control at 75 ppm in experiment [2] lay in the range of 50 to 79%.

With `FC(F)(F)c1cc(Oc2ccc(CCNc3ncnc4scc(Cl)c34)cc2)nc(C(F)(F)F)c1` [Compound 76], the pest or weed control at 200 ppm fell in the range of 80 to 100% in experiment [1]; 50 to 79% in experiment [3]; 0 to 49% in experiment [4]; 0 to 49% in experiment [5]; 50 to 79% in experiment [6]; 80 to 100% in experiment [7]. Moreover, in experiment [2], the pest or weed control at 75 ppm is 0 to 49%.

Take `Clc1csc2ncnc(NCCc3ccc(Oc4cccc(C(Cl)(Cl)Cl)n4)cc3)c12` [Compound 77]: the pest or weed control at 200 ppm in experiment [1] is 80 to 100%; in experiment [3], 80 to 100%; in experiment [4] it was 0 to 49%; in experiment [5] it was 0 to 49%; in experiment [6], 0 to 49%; in experiment [7], 80 to 100%. In addition, the pest or weed control at 75 ppm in experiment [2] was in the range of 0 to 49%.

Take `FC(F)(F)c1ncccc1Oc1ccc(CCNc2ncnc3scc(Cl)c23)cc1` [Compound 78]: the pest or weed control at 200 ppm in experiment [1] lay in the range of 80 to 100%; in experiment [3], 80 to 100%; in experiment [4] it was 80 to 100%; in experiment [5], 50 to 79%; in experiment [6], 50 to 79%; in experiment [7] it was 80 to 100%. Also, in experiment [2], the pest or weed control at 75 ppm is 50 to 79%.

Consider `COC(=O)c1cccc(Oc2ccc(CCNc3ncnc4scc(Cl)c34)cc2)n1` [Compound 79], for which the pest or weed control at 200 ppm was in the range of 80 to 100% in experiment [1]; 0 to 49% in experiment [3]; 0 to 49% in experiment [4]; 80 to 100% in experiment [5]; 0 to 49% in experiment [6]; 80 to 100% in experiment [7]. Moreover, the pest or weed control at 75 ppm in experiment [2] lay in the range of 0 to 49%.

Turning to `CCOC(=O)c1cccc(Oc2ccc(CCNc3ncnc4scc(Cl)c34)cc2)n1` [Compound 80], the pest or weed control at 200 ppm is 80 to 100% in experiment [1]; 0 to 49% in experiment [3]; 0 to 49% in experiment [4]; 80 to 100% in experiment [5]; 0 to 49% in experiment [6]; 80 to 100% in experiment [7]. For the same molecule, the pest or weed control at 75 ppm in experiment [2] was in the range of 0 to 49%.

For the origin of these results see patent publication US7531482B2, “Thieno-pyrimidine compounds having fungicidal activity” (Dow AgroSciences LLC, priority 2005, dated 2009).
